Assay results reported in patent US8778973B2, “Alkene oxindole derivatives” (Hoffmann-La Roche Inc., priority 2009, dated 2014).

What follows are compounds tested on Recombinant human AMPK proteins (α1β1γ1, α2β1γ1, α1(1-335), α1(1-394) or α2(1-394)) (assay: Scintillation Proximity Assay (SPA) of AMPK activation). Conditions: activator concentration for 50% of maximal enzyme activity; 50 nM recombinant AMPK, 2 μM ATP, 30° C., 2 hr.
Assay type: biochemical
Experimental: Recombinant human AMPK α1β1γ1, α2β1γ1 or AMPK α subunit truncations α1(1-335), α1(1-394) and α2(1-394) were constructed, expressed and purified as described previously (Pang, T., Zhang, Z. S., Gu, M., Qiu, B. Y., Yu, L. F., Cao, P. R., Shao, W., Su, M. B., Li, J. Y., Nan, F. J., and Li, J. (2008)). Rat liver AMPK heterotrimer enzyme was obtained from Upstate (Billerica, Mass., U.S.A.).
Scintillation Proximity Assay
Before the Scintillation Proximity Assay (SPA) assay, 200 nM recombinant AMPK proteins (α1β1γ1, α2β1γ1, α1(1-335), α1(1-394) or α2(1-394)) were fully phosphorylated as described previously (Pang et al., 2008). SPA reactions were performed in 96-well plates at a final volume of 501 containing 20 mM Tris-HCl pH 7.5, 5 mM MgCl2, 1 mM DTT, 2 μM biotin-SAMS, 2 μM ATP, 0.2 μCi/well [γ-^33P]ATP, and various amount of activator. Reactions were initiated by the addition of 50 nM recombinant AMPK proteins to the reaction solutions and incubated at 30° C. for 2 hr. After that, reactions were terminated by the addition of 401 stop solution containing 80 μg streptavidin-coated SPA beads per well, 50 mM EDTA, 0.1% Triton X-100 in PBS, pH 7.5 and incubated for 1 hr. Finally, a 160 ul suspension solution containing 2.4 M CsCl, 50 mM EDTA, and 0.1% Triton X-100 in PBS (pH 7.5) was added to the reaction solution to suspend SPA beads completely. SPA signals were determined with a Wallac MicroBeta plate counter (PerkinElmer) 30 min later for calculation of the amount of product formed. The amount of products formed in 2 hr was plotted against activator concentrations to determine the effective concentration of the activator (EC50) required for 50% of maximal enzyme activity.
Compounds as described above have EC50 values between 0.5 uM and 50 uM, preferred compounds have EC50 values between 0.5 uM and 10 uM, particularly preferred compounds have EC50 values between 0.5 uM and 1 uM.

| SMILES | EC50 |
| --- | --- |
| O=C(O)c1cccc(CN2C(=O)/C(=C(/c3ccccc3)c3ccc(Cl)cc3)c3ccccc32)c1 [Example 68, 3-{3-[1-(4-Chloro-phenyl)-1-phenyl-meth-(Z)-ylidene]-2-oxo-2,3-dihydro-indol-1-ylmethyl}-benzoic acid] | 2.12 µM |
| COC(=O)c1cccc(CN2C(=O)/C(=C(\c3ccccc3)c3ccccc3SC)c3ccccc32)c1 [Example 28, 3-{3-[1-(2-Methylsulfanyl-phenyl)-1-phenyl-meth-(E)-ylidene]-2-oxo-2,3-dihydro-indol-1-ylmethyl}-benzoic acid methyl ester] | 0.8 µM |
| CC(=O)c1ccc(/C(=C2/C(=O)N(Cc3cccc(C(=O)O)c3)c3ccccc32)C(C)C)cc1 [Example 108, 3-{3-[1-(4-Acetyl-phenyl)-2-methyl-prop-(E)-ylidene]-2-oxo-2,3-dihydro-indol-1-ylmethyl}-benzoic acid] | 3.25 µM |
| COC(=O)c1cccc(CN2C(=O)/C(=C(\c3ccccc3)c3ccccc3S(C)(=O)=O)c3ccccc32)c1 [Example 32, 3-{3-[1-(2-Methanesulfonyl-phenyl)-1-phenyl-meth-(E)-ylidene]-2-oxo-2,3-dihydro-indol-1-ylmethyl}-benzoic acid methyl ester] | 10.5 µM |
| COC(=O)c1cccc(CN2C(=O)/C(=C(\c3ccccc3)c3cc(C(F)(F)F)ccc3Cl)c3ccccc32)c1 [Example 24, 3-{3-[1-(2-Chloro-5-trifluoromethyl-phenyl)-1-phenyl-meth-(E)-ylidene]-2-oxo-2,3-dihydro-indol-1-ylmethyl}-benzoic acid methyl ester] | 4.82 µM |
| O=C(O)c1cccc(CN2C(=O)/C(=C(\c3ccccc3)c3cc(C(F)(F)F)cc(C(F)(F)F)c3)c3ccccc32)c1 [Example 65, 3-{3-[1-(3,5-Bis-trifluoromethyl-phenyl)-1-phenyl-meth-(E)-ylidene]-2-oxo-2,3-dihydro-indol-1-ylmethyl}-benzoic acid] | 3.41 µM |
| COC(=O)c1cccc(CN2C(=O)/C(=C(\c3ccccc3)c3cccc(Cl)c3)c3ccccc32)c1 [Example 16, 3-{3-[1-(3-Chloro-phenyl)-1-phenyl-meth-(E)-ylidene]-2-oxo-2,3-dihydro-indol-1-ylmethyl}-benzoic acid methyl ester] | 1.53 µM |
| O=C(O)COc1ccc(CN2C(=O)/C(=C(\c3ccccc3)c3ccc(Cl)cc3)c3ccccc32)cc1 [Example 70, (4-{3-[1-(4-Chloro-phenyl)-1-phenyl-meth-(E)-ylidene]-2-oxo-2,3-dihydro-indol-1-ylmethyl}-phenoxy)-acetic acid] | 4.96 µM |
| CC(C)/C(=C1\C(=O)N(Cc2cccc(C(=O)O)c2)c2ccc(Cl)cc21)c1ccc(C(F)(F)F)cc1 [Example 107, 3-{5-Chloro-3-[2-methyl-1-(4-trifluoromethyl-phenyl)-prop-(E)-ylidene]-2-oxo-2,3-dihydro-indol-1-ylmethyl}-benzoic acid] | 0.66 µM |
| O=C(O)c1cccc(CN2C(=O)/C(=C(\c3ccccc3)c3ccc(Cl)cc3)c3cc(Cl)ccc32)c1 [Example 74, 3-{5-Chloro-3-[1-(4-chloro-phenyl)-1-phenyl-meth-(E)-ylidene]-2-oxo-2,3-dihydro-indol-1-ylmethyl}-benzoic acid] | 3.17 µM |
| COC(=O)c1cccc(CN2C(=O)/C(=C(/c3ccc(C(F)(F)F)cc3)C(C)C)c3ccccc32)c1 [Example 88, 3-{3-[2-Methyl-1-(4-trifluoromethyl-phenyl)-prop-(E)-ylidene]-2-oxo-2,3-dihydro-indol-1-ylmethyl}-benzoic acid methyl ester] | 2.59 µM |
| COC(=O)c1cccc(CN2C(=O)/C(=C(\c3ccccc3)c3ccc(F)c(F)c3)c3ccccc32)c1 [Example 15, 3-{3-[1-(3,4-Difluoro-phenyl)-1-phenyl-meth-(E)-ylidene]-2-oxo-2,3-dihydro-indol-1-ylmethyl}-benzoic acid methyl ester] | 2.47 µM |
| COC(=O)c1ccc(CN2C(=O)/C(=C(\c3ccccc3)c3ccc(Cl)cc3)c3ccccc32)cc1 [Example 21, 4-{3-[1-(4-Chloro-phenyl)-1-phenyl-meth-(E)-ylidene]-2-oxo-2,3-dihydro-indol-1-ylmethyl}-benzoic acid methyl ester] | 6.07 µM |
| O=C(O)c1cccc(CN2C(=O)/C(=C(\c3ccccc3)c3ccc(F)c(Cl)c3)c3ccccc32)c1 [Example 50, 3-{3-[1-(3-Chloro-4-fluoro-phenyl)-1-phenyl-meth-(E)-ylidene]-2-oxo-2,3-dihydro-indol-1-ylmethyl}-benzoic acid] | 5.89 µM |
| COc1cc(/C(=C2/C(=O)N(Cc3cccc(C(=O)O)c3)c3ccccc32)c2ccccc2)cc(OC)c1OC [Example 51, 3-{2-Oxo-3-[1-phenyl-1-(3,4,5-trimethoxy-phenyl)-meth-(E)-ylidene]-2,3-dihydro-indol-1-ylmethyl}-benzoic acid] | 1.42 µM |
| COC(=O)c1cccc(CN2C(=O)/C(=C(\c3ccccc3)c3ccc(C)cc3)c3ccccc32)c1 [Example 9, 3-{2-Oxo-3-[1-phenyl-1-p-tolyl-meth-(E)-ylidene]-2,3-dihydro-indol-1-ylmethyl}-benzoic acid methyl ester] | 2.16 µM |
| O=C(O)c1cccc(CN2C(=O)/C(=C(\c3ccccc3)c3cccnc3)c3ccccc32)c1 [Example 63, 3-{2-Oxo-3-[1-phenyl-1-pyridin-3-yl-meth-(E)-ylidene]-2,3-dihydro-indol-1-ylmethyl}-benzoic acid] | 3.24 µM |
| O=C(O)c1cccc(CN2C(=O)/C(=C(\c3ccccc3)c3ccc(Cl)cc3)c3ccccc32)c1 [Example 44, 3-{3-[1-(4-Chloro-phenyl)-1-phenyl-meth-(E)-ylidene]-2-oxo-2,3-dihydro-indol-1-ylmethyl}-benzoic acid] | 1.21 µM |

More lines, in order of falling EC50, values ahead:

| EC50 | SMILES |
| --- | --- |
| 6.55 µM | O=C(O)c1cccc(CN2C(=O)/C(=C(\c3ccccc3)c3cccc(Cl)c3)c3ccccc32)c1 [Example 52, 3-{3-[1-(3-Chloro-phenyl)-1-phenyl-meth-(E)-ylidene]-2-oxo-2,3-dihydro-indol-1-ylmethyl}-benzoic acid] |
| 5.89 µM | O=C(O)c1cccc(CN2C(=O)/C(=C(\c3ccccc3)c3ccc(Cl)cc3)c3cc(F)ccc32)c1 [Example 53, 3-{3-[1-(4-Chloro-phenyl)-1-phenyl-meth-(E)-ylidene]-5-fluoro-2-oxo-2,3-dihydro-indol-1-ylmethyl}-benzoic acid] |
| 5.8 µM | COC(=O)c1cccc(CN2C(=O)/C(=C(\CC(C)(C)C)c3ccccc3)c3ccccc32)c1 [Example 80, 3-{3-[3,3-Dimethyl-1-phenyl-but-(E)-ylidene]-2-oxo-2,3-dihydro-indol-1-ylmethyl}-benzoic acid methyl ester] |
| 5.34 µM | COC(=O)c1cccc(CN2C(=O)/C(=C(\c3ccccc3)c3ccc(C(F)(F)F)cc3)c3ccccc32)c1 [Example 12, 3-{2-Oxo-3-[1-phenyl-1-(4-trifluoromethyl-phenyl)-meth-(E)-ylidene]-2,3-dihydro-indol-1-ylmethyl}-benzoic acid methyl ester] |
| 5.25 µM | C/C(=C1\C(=O)N(CC(=O)O)c2ccccc21)c1ccccc1 [Example 4, [2-Oxo-3-(1-phenyl-ethylidene)-2,3-dihydro-indol-1-yl]-acetic acid] |
| 5.14 µM | O=C(O)c1csc(CN2C(=O)/C(=C(\c3ccccc3)c3ccc(Cl)cc3)c3ccccc32)n1 [Example 76, 2-{3-[1-(4-Chloro-phenyl)-1-phenyl-meth-(E)-ylidene]-2-oxo-2,3-dihydro-indol-1-ylmethyl}-thiazole-4-carboxylic acid] |
| 4.02 µM | CC(C)c1ccc(/C(=C2/C(=O)N(Cc3cccc(C(=O)O)c3)c3ccccc32)c2ccccc2)cc1 [Example 71, 3-{3-[1-(4-Isopropyl-phenyl)-1-phenyl-meth-(E)-ylidene]-2-oxo-2,3-dihydro-indol-1-ylmethyl}-benzoic acid] |
| 2.95 µM | CC(C)/C(=C1\C(=O)N(Cc2cccc(C(=O)O)c2)c2ccccc21)c1ccc(C(F)(F)F)cc1 [Example 105, 3-{3-[2-Methyl-1-(4-trifluoromethyl-phenyl)-prop-(E)-ylidene]-2-oxo-2,3-dihydro-indol-1-ylmethyl}-benzoic acid] |
| 2.36 µM | COC(=O)c1cccc(CN2C(=O)/C(=C(\c3ccccc3)c3ccc(Cl)cc3)c3cc(F)cc(Cl)c32)c1 [Example 29, 3-{7-Chloro-3-[1-(4-chloro-phenyl)-1-phenyl-meth-(E)-ylidene]-5-fluoro-2-oxo-2,3-dihydro-indol-1-ylmethyl}-benzoic acid methyl ester] |
| 2.17 µM | O=C(O)c1ccc(CN2C(=O)/C(=C(\c3ccccc3)c3ccc(Cl)cc3)c3ccccc32)cc1 [Example 57, 4-{3-[1-(4-Chloro-phenyl)-1-phenyl-meth-(E)-ylidene]-2-oxo-2,3-dihydro-indol-1-ylmethyl}-benzoic acid] |
